According to ChEMBL document CHEMBL1201861, “Genomics of Drug Sensitity in Cancer screening data, Wellcome Trust Sanger Institute”:

Experiments:
[1] = test system: KYSE-510; test: cells; assay type: functional, cell-based, Homo sapiens; conditions: Homo sapiens, KYSE-510;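 also: cell viability readout used to measure how strongly growth of the cell line is suppressed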
Description: SANGER: Inhibition of human KYSE-510 cell growth in a cell viability assay.

[2] = test system: NCI-H1563; test: cells; assay type: functional, cell-based, Homo sapiens; conditions: Homo sapiens, NCI-H1563;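 also: growth inhibition of human NCI-H1563 cells, read out with a cell viability assay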
Description: SANGER: Inhibition of human NCI-H1563 cell growth in a cell viability assay.

[3] = test system: EB2; test: cells; assay type: functional, cell-based, Homo sapiens; conditions: Homo sapiens, EB2;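 also: growth inhibition of EB2 cells, read out with a cell viability assay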
Description: SANGER: Inhibition of human EB2 cell growth in a cell viability assay.

[4] = test system: NCI-H28; test: cells; assay type: functional, cell-based, Homo sapiens; conditions: Homo sapiens, NCI-H28;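 also: growth inhibition of human NCI-H28 cells, read out as cell viability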
Description: SANGER: Inhibition of human NCI-H28 cell growth in a cell viability assay.

[5] = test system: SW1463; test: cells; assay type: functional, cell-based, Homo sapiens; conditions: Homo sapiens, SW1463;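 also: growth inhibition of SW1463 cells, determined with a cell viability assay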
Description: SANGER: Inhibition of human SW1463 cell growth in a cell viability assay.

[6] = test system: NCI-H596; test: cells; assay type: functional, cell-based, Homo sapiens; conditions: Homo sapiens, NCI-H596;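 also: growth inhibition of NCI-H596 cells, read out with a cell viability assay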
Description: SANGER: Inhibition of human NCI-H596 cell growth in a cell viability assay.

[7] = test system: IMR-5; test: cells; assay type: functional, cell-based, Homo sapiens; conditions: Homo sapiens, IMR-5;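 also: growth inhibition of human IMR-5 cells, read out with a cell viability assay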
Description: SANGER: Inhibition of human IMR-5 cell growth in a cell viability assay.

[8] = test system: NCI-H2171; test: cells; assay type: functional, cell-based, Homo sapiens; conditions: Homo sapiens, NCI-H2171;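 also: growth inhibition of human NCI-H2171 cells, read out by a cell viability assay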
Description: SANGER: Inhibition of human NCI-H2171 cell growth in a cell viability assay.

[9] = test system: GAMG; test: cells; assay type: functional, cell-based, Homo sapiens; conditions: Homo sapiens, GAMG;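 also: cell growth inhibition measured by a viability assay in the GAMG human cell line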
Description: SANGER: Inhibition of human GAMG cell growth in a cell viability assay.

[10] = test system: NCI-H2052; test: cells; assay type: functional, cell-based, Homo sapiens; conditions: Homo sapiens, NCI-H2052;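 also: growth inhibition of NCI-H2052 cells, read out with a cell viability assay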
Description: SANGER: Inhibition of human NCI-H2052 cell growth in a cell viability assay.

[11] = test system: IGR-1; test: cells; assay type: functional, cell-based, Homo sapiens; conditions: Homo sapiens, IGR-1;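 also: growth inhibition of human IGR-1 cells, read out with a cell viability assay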
Description: SANGER: Inhibition of human IGR-1 cell growth in a cell viability assay.

[12] = test system: LU-165; test: cells; assay type: functional, cell-based, Homo sapiens; conditions: Homo sapiens, LU-165
Description: SANGER: Inhibition of human LU-165 cell growth in a cell viability assay.

[13] = test system: GMS-10; test: cells; assay type: functional, cell-based, Homo sapiens; conditions: Homo sapiens, GMS-10;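 also: growth inhibition of GMS-10 cells, read out as cell viability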
Description: SANGER: Inhibition of human GMS-10 cell growth in a cell viability assay.

[14] = test system: SCLC-21H; test: cells; assay type: functional, cell-based, Homo sapiens; conditions: Homo sapiens, SCLC-21H;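 also: growth inhibition of cultured human SCLC-21H cells, read out with a cell viability assay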
Description: SANGER: Inhibition of human SCLC-21H cell growth in a cell viability assay.

[15] = test system: CAL-54; test: cells; assay type: functional, cell-based, Homo sapiens; conditions: Homo sapiens, CAL-54;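 also: growth inhibition of CAL-54 cells, read out by a viability measurement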
Description: SANGER: Inhibition of human CAL-54 cell growth in a cell viability assay.

[16] = test system: OVCAR-3; test: cells; assay type: functional, cell-based, Homo sapiens; conditions: Homo sapiens, OVCAR-3;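 also: growth inhibition of human OVCAR-3 cells, determined by a cell viability assay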
Description: SANGER: Inhibition of human OVCAR-3 cell growth in a cell viability assay.

[17] = test system: SUP-T1; test: cells; assay type: functional, cell-based, Homo sapiens; conditions: Homo sapiens, SUP-T1;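 also: growth inhibition of human SUP-T1 cells, read out as cell viability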
Description: SANGER: Inhibition of human SUP-T1 cell growth in a cell viability assay.

[18] = test system: BL-70; test: SANGER: Inhibition of human BL-70 cell growth in a cell viability assay.; assay type: functional, cell-based; conditions: Homo sapiens, BL-70
[19] = test system: HCC1419; test: cells; assay type: functional, cell-based, Homo sapiens; conditions: Homo sapiens, HCC1419;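 also: growth inhibition of human HCC1419 cells, read out as cell viability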
Description: SANGER: Inhibition of human HCC1419 cell growth in a cell viability assay.

[20] = test system: BCPAP; test: cells; assay type: functional, cell-based, Homo sapiens; conditions: Homo sapiens, BCPAP;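 also: growth inhibition of BCPAP cells, read out in a cell viability assay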
Description: SANGER: Inhibition of human BCPAP cell growth in a cell viability assay.

[21] = test system: BXPC-3; test: cells; assay type: functional, cell-based, Homo sapiens; conditions: Homo sapiens, BXPC-3;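 also: growth inhibition of human BxPC-3 cells, read out by a cell viability assay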
Description: SANGER: Inhibition of human BxPC-3 cell growth in a cell viability assay.

[22] = test system: SK-LU-1; test: cells; assay type: functional, cell-based, Homo sapiens; conditions: Homo sapiens, SK-LU-1;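 also: cell viability assay measuring growth inhibition of human SK-LU-1 cells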
Description: SANGER: Inhibition of human SK-LU-1 cell growth in a cell viability assay.

[23] = test system: VM-CUB-1; test: cells; assay type: functional, cell-based, Homo sapiens; conditions: Homo sapiens, VM-CUB-1;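 also: cell viability assay measuring growth inhibition of the human VM-CUB-1 cell line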
Description: SANGER: Inhibition of human VM-CUB-1 cell growth in a cell viability assay.

[24] = test system: GP5d; test: cells; assay type: functional, cell-based, Homo sapiens; conditions: Homo sapiens, GP5d;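 also: growth inhibition of human GP5d cells, read out with a cell viability assay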
Description: SANGER: Inhibition of human GP5d cell growth in a cell viability assay.

[25] = test system: LB647-SCLC; test: cells; assay type: functional, cell-based, Homo sapiens; conditions: Homo sapiens, LB647-SCLC;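 also: cell growth inhibition, read out by a viability assay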
Description: SANGER: Inhibition of human LB647-SCLC cell growth in a cell viability assay.

[26] = test system: CAL-85-1; test: cells; assay type: functional, cell-based, Homo sapiens; conditions: Homo sapiens, CAL-85-1;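 also: growth inhibition of human CAL-85-1 cells, read out with a cell viability assay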
Description: SANGER: Inhibition of human CAL-85-1 cell growth in a cell viability assay.

[27] = test system: HuP-T3; test: cells; assay type: functional, cell-based, Homo sapiens; conditions: Homo sapiens, HuP-T3;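 also: HuP-T3 cell growth inhibition, read out with a cell viability assay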
Description: SANGER: Inhibition of human HuP-T3 cell growth in a cell viability assay.

[28] = test system: SNU-387; test: cells; assay type: functional, cell-based, Homo sapiens; conditions: Homo sapiens, SNU-387
Description: SANGER: Inhibition of human SNU-387 cell growth in a cell viability assay.

[29] = test system: HO-1-N-1; test: cells; assay type: functional, cell-based, Homo sapiens; conditions: Homo sapiens, HO-1-N-1;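 also: growth inhibition of human HO-1-N-1 cells, read out with a cell viability assay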
Description: SANGER: Inhibition of human HO-1-N-1 cell growth in a cell viability assay.

[30] = test system: HN; test: cells; assay type: functional, cell-based, Homo sapiens; conditions: Homo sapiens, HN
Description: SANGER: Inhibition of human HN cell growth in a cell viability assay.

[31] = test system: MEL-HO; test: cells; assay type: functional, cell-based, Homo sapiens; conditions: Homo sapiens, MEL-HO
Description: SANGER: Inhibition of human MEL-HO cell growth in a cell viability assay.

[32] = test system: NCI-H2081; test: cells; assay type: functional, cell-based, Homo sapiens; conditions: Homo sapiens, NCI-H2081;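 also: growth inhibition of human NCI-H2081 cells, read out with a cell viability assay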
Description: SANGER: Inhibition of human NCI-H2081 cell growth in a cell viability assay.

[33] = test system: MONO-MAC-6; test: cells; assay type: functional, cell-based, Homo sapiens; conditions: Homo sapiens, MONO-MAC-6;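 also: cell viability assay measuring growth inhibition of human MONO-MAC-6 cells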
Description: SANGER: Inhibition of human MONO-MAC-6 cell growth in a cell viability assay.

[34] = test system: M059J; test: cells; assay type: functional, cell-based, Homo sapiens; conditions: Homo sapiens, M059J;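 also: growth inhibition of M059J cells, read out with a cell viability assay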
Description: SANGER: Inhibition of human M059J cell growth in a cell viability assay.

[35] = test system: RO82-W-1; test: cells; assay type: functional, cell-based, Homo sapiens; conditions: Homo sapiens, RO82-W-1;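 also: growth inhibition of human RO82-W-1 cells, measured with a cell viability assay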
Description: SANGER: Inhibition of human RO82-W-1 cell growth in a cell viability assay.

[36] = test system: CAKI-1; test: cells; assay type: functional, cell-based, Homo sapiens; conditions: Homo sapiens, CAKI-1;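 also: growth inhibition of CAKI-1 cells, measured by a cell viability assay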
Description: SANGER: Inhibition of human CAKI-1 cell growth in a cell viability assay.

[37] = test system: COR-L279; test: SANGER: Inhibition of human COR-L279 cell growth in a cell viability assay.; assay type: functional, cell-based; conditions: Homo sapiens, COR-L279
[38] = test system: NCI-H1963; test: cells; assay type: functional, cell-based, Homo sapiens; conditions: Homo sapiens, NCI-H1963;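 also: cell growth inhibition of the human line, determined with a cell viability assay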
Description: SANGER: Inhibition of human NCI-H1963 cell growth in a cell viability assay.

[39] = test system: RVH-421; test: cells; assay type: functional, cell-based, Homo sapiens; conditions: Homo sapiens, RVH-421
Description: SANGER: Inhibition of human RVH-421 cell growth in a cell viability assay.

[40] = test system: DG-75; test: cells; assay type: functional, cell-based, Homo sapiens; conditions: Homo sapiens, DG-75;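 also: growth inhibition of DG-75 cells, read out with a cell viability assay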
Description: SANGER: Inhibition of human DG-75 cell growth in a cell viability assay.

[41] = test system: PC-3; test: cells; assay type: functional, cell-based, Homo sapiens; conditions: Homo sapiens, PC-3
Description: SANGER: Inhibition of human PC-3 cell growth in a cell viability assay.

[42] = test system: CAL-148; test: cells; assay type: functional, cell-based, Homo sapiens; conditions: Homo sapiens, CAL-148
Description: SANGER: Inhibition of human CAL-148 cell growth in a cell viability assay.

[43] = test system: COLO-680N; test: cells; assay type: functional, cell-based, Homo sapiens; conditions: Homo sapiens, COLO-680N;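 also: cell viability assay used to measure inhibition of COLO-680N cell growth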
Description: SANGER: Inhibition of human COLO-680N cell growth in a cell viability assay.

[44] = test system: HT-1080; test: cells; assay type: functional, cell-based, Homo sapiens; conditions: Homo sapiens, HT-1080
Description: SANGER: Inhibition of human HT-1080 cell growth in a cell viability assay.

`Cc1cc([N+](=O)[O-])ccc1NS(=O)(=O)c1cc(Cl)ccc1Cl` gave an IC50 [1] of 4.84 µM, an IC50 [2] of 9.47 µM and an IC50 [3] of over 32 µM. The IC50 [4] was 8.5 µM, the IC50 [5] was 7.85 µM and the IC50 [6] was 7.95 µM. The IC50 [7] was 11.2 µM, the IC50 [8] was over 32 µM and the IC50 [9] was 5.58 µM. The IC50 [10] was 18.2 µM, the IC50 [11] was 2010 nM and the IC50 [12] was over 32 µM. The IC50 [13] was 20.1 µM, the IC50 [14] was 4.84 µM and the IC50 [15] was 5.44 µM. It also gave an IC50 [16] of 5.81 µM, an IC50 [17] of 5.41 µM and an IC50 [18] of 5.1 µM. It also gave an IC50 [19] of 3.89 µM, an IC50 [20] of 2050 nM and an IC50 [21] of 6.84 µM. It also gave an IC50 [22] of 3.27 µM, an IC50 [23] of 8.15 µM and an IC50 [24] of 1140 nM. For the same molecule, the IC50 [25] was over 32 µM, the IC50 [26] was 3.61 µM and the IC50 [27] was 11.2 µM. It also gave an IC50 [28] of 7.66 µM, an IC50 [29] of over 32 µM and an IC50 [30] of over 32 µM. For the same molecule, the IC50 [31] was 6530 nM, the IC50 [32] was over 32 µM and the IC50 [33] was 6.18 µM. For the same molecule, the IC50 [34] was 5.94 µM, the IC50 [35] was over 32 µM and the IC50 [36] was 13.2 µM. For the same molecule, the IC50 [37] was over 32 µM, the IC50 [38] was 8.68 µM and the IC50 [39] was 931 nM. The IC50 [40] was over 32 µM, the IC50 [41] was 8.12 µM and the IC50 [42] was 13.7 µM. It also gave an IC50 [43] of 12.5 µM and an IC50 [44] of 675 nM.
Molecule `C=C(c1ccc(C(=O)O)cc1)c1cc2c(cc1C)C(C)(C)CCC2(C)C` [BEXAROTENE] has an IC50 [1] of over 8 µM, an IC50 [2] of over 8 µM and an IC50 [3] of over 8 µM. It also gave an IC50 [4] of over 8 µM, an IC50 [5] of over 8 µM and an IC50 [6] of over 8 µM. The IC50 [7] was over 8 µM, the IC50 [8] was over 8 µM and the IC50 [9] was over 8 µM. For the same molecule, the IC50 [10] was over 8 µM, the IC50 [11] was over 8000 nM and the IC50 [12] was over 8 µM. It also gave an IC50 [13] of over 8 µM, an IC50 [14] of over 8 µM and an IC50 [15] of over 8 µM. The IC50 [16] was over 8 µM, the IC50 [17] was over 8 µM and the IC50 [18] was over 8 µM. It also gave an IC50 [19] of over 8 µM, an IC50 [20] of over 8000 nM and an IC50 [21] of over 8 µM. It also gave an IC50 [22] of over 8 µM, an IC50 [23] of over 8 µM and an IC50 [24] of over 8000 nM. For the same molecule, the IC50 [25] was over 8 µM, the IC50 [26] was over 8 µM and the IC50 [27] was over 8 µM. It also gave an IC50 [28] of over 8 µM, an IC50 [29] of over 8 µM and an IC50 [30] of over 8 µM. It also gave an IC50 [31] of 531 nM, an IC50 [32] of over 8 µM and an IC50 [33] of over 8 µM. For the same molecule, the IC50 [34] was over 8 µM, the IC50 [35] was over 8 µM and the IC50 [36] was over 8 µM. The IC50 [37] was over 8 µM, the IC50 [38] was over 8 µM and the IC50 [39] was over 8000 nM. The IC50 [40] was over 8 µM, the IC50 [41] was over 8 µM and the IC50 [42] was over 8 µM. It also gave an IC50 [43] of over 8 µM and an IC50 [44] of over 8000 nM.
With `COc1cccc2c1C(=O)c1c(O)c3c(c(O)c1C2=O)C[C@@](O)(C(=O)CO)C[C@@H]3O[C@H]1C[C@H](N)[C@H](O)[C@H](C)O1` [DOXORUBICIN] the IC50 [1] was 0.0155 µM, the IC50 [2] was 0.556 µM and the IC50 [3] was 0.0337 µM. The IC50 [4] was over 1.02 µM, the IC50 [5] was over 1.02 µM and the IC50 [6] was 0.108 µM. For the same molecule, the IC50 [7] was 0.0347 µM, the IC50 [8] was 0.441 µM and the IC50 [9] was 0.06 µM. The IC50 [10] was 0.16 µM, the IC50 [11] was 33.9 nM and the IC50 [12] was 0.639 µM. For the same molecule, the IC50 [13] was over 1.02 µM, the IC50 [14] was over 1.02 µM and the IC50 [15] was 0.301 µM. The IC50 [16] was 0.47 µM, the IC50 [17] was 0.0797 µM and the IC50 [18] was 0.342 µM. It also gave an IC50 [19] of 0.632 µM, an IC50 [20] of 52.5 nM and an IC50 [21] of 0.211 µM. The IC50 [22] was 0.0125 µM, the IC50 [23] was 0.0754 µM and the IC50 [24] was 49.1 nM. It also gave an IC50 [25] of 0.123 µM, an IC50 [26] of 0.0445 µM and an IC50 [27] of 0.166 µM. The IC50 [28] was 0.236 µM, the IC50 [29] was 0.223 µM and the IC50 [30] was 0.354 µM. For the same molecule, the IC50 [31] was 18.3 nM, the IC50 [32] was 0.234 µM and the IC50 [33] was 0.154 µM. It also gave an IC50 [34] of 0.0314 µM, an IC50 [35] of over 1.02 µM and an IC50 [36] of 0.375 µM. It also gave an IC50 [37] of 0.0569 µM, an IC50 [38] of 0.43 µM and an IC50 [39] of 169 nM. It also gave an IC50 [40] of 0.666 µM, an IC50 [41] of 0.957 µM and an IC50 [42] of 0.0269 µM. For the same molecule, the IC50 [43] was 0.0339 µM and the IC50 [44] was 14.8 nM.
